PubChem BioAssay (NCI)
Several values for one entry are separate records, joined by “and”; a condition that tells them apart may be missing. Equal entries are not always repeated.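 Assay format: 96-well plates, 48-hour exposure. GI50 marks 50% less growth. TGI: concentration producing complete growth inhibition.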

What was measured:
Experiment in all cases: NCI-60 cell line screen, 48 h
BT-549 breast = system: BT-549 breast
MCF7 breast = system: MCF7 breast
NCI/ADR-RES ovarian = system: NCI/ADR-RES ovarian
PC-3 prostate = system: PC-3 prostate
T-47D breast = system: T-47D breast
TK-10 renal = system: TK-10 renal

Work on `CCN1C(=O)N(CC)C2C1NN=c1s/c(=C3\C(=O)N(CC(C)(C)C)c4ccccc43)c(=O)n12` (stereo unspecified) yielded a GI50 (BT-549 breast) of 2.62 µM, a TGI (BT-549 breast) of 9.65 µM and a GI50 (MCF7 breast) of 1.62 µM. For the same compound, the TGI (MCF7 breast) was 18.7 µM, the GI50 (NCI/ADR-RES ovarian) was 2.61 µM and the TGI (NCI/ADR-RES ovarian) was 13.3 µM. The GI50 (PC-3 prostate) was 4.31 µM, the TGI (PC-3 prostate) was 31.5 µM and the GI50 (T-47D breast) was 5.71 µM. It also gave a TGI (T-47D breast) of 53.7 µM, a GI50 (TK-10 renal) of 15.3 µM and a TGI (TK-10 renal) of 48.5 µM.
For `Cc1nc2sc3c(c2c(=O)[nH]1)CCCC3`, the TGI (BT-549 breast) was > 100 µM, the TGI (MCF7 breast) was > 100 µM and the TGI (NCI/ADR-RES ovarian) was > 100 µM. For the same compound, the TGI (PC-3 prostate) was > 100 µM, the TGI (T-47D breast) was > 100 µM and the TGI (TK-10 renal) was > 100 µM.
In the case of `c1ccc2c(c1)c1c(c3ccccc32)CN2CCCC2C1` (stereo unspecified), the TGI (BT-549 breast) is reported as 53.9 µM, the TGI (MCF7 breast) is reported as 11.4 µM and the TGI (NCI/ADR-RES ovarian) is reported as > 41.5 µM. The TGI (PC-3 prostate) was 13.4 µM, the TGI (T-47D breast) was > 100 µM and the TGI (TK-10 renal) was > 90.8 µM.
Compound `O=S(=O)(Nc1ccc(F)cc1F)c1ccc(-c2cnc(C3CC3)o2)cc1` has a GI50 (BT-549 breast) of 0.597 µM, a TGI (BT-549 breast) of 24 µM and a GI50 (MCF7 breast) of 0.398 µM. For the same compound, the TGI (MCF7 breast) was > 55.9 µM, the GI50 (NCI/ADR-RES ovarian) was 0.394 µM and the TGI (NCI/ADR-RES ovarian) was 15 µM. For the same compound, the GI50 (PC-3 prostate) was 0.897 µM, the TGI (PC-3 prostate) was > 50.1 µM and the GI50 (T-47D breast) was 0.443 µM. It also gave a TGI (T-47D breast) of 52.8 µM, a GI50 (TK-10 renal) of 3.2 µM and a TGI (TK-10 renal) of 48.3 µM.
`O=C(O)c1ccc(OCc2ccccc2)c(Cl)c1` was tested, and the TGI (BT-549 breast) was > 100 µM, the TGI (MCF7 breast) was > 100 µM and the TGI (NCI/ADR-RES ovarian) was > 100 µM. The TGI (PC-3 prostate) was > 100 µM, the TGI (T-47D breast) was > 100 µM and the TGI (TK-10 renal) was > 100 µM.
Work on `O=C1c2ccccc2-c2c1c1ccccc1c(=O)n2CCCCl` yielded a GI50 (BT-549 breast) of 14.6 µM, a TGI (BT-549 breast) of 58.3 µM and a GI50 (MCF7 breast) of 2.18 µM. It also gave a TGI (MCF7 breast) of 62.4 µM, a GI50 (NCI/ADR-RES ovarian) of 16.9 µM and a TGI (NCI/ADR-RES ovarian) of 73.3 µM. The GI50 (PC-3 prostate) was 24.9 µM, the TGI (PC-3 prostate) was > 100 µM and the GI50 (T-47D breast) was 22.5 µM. For the same compound, the TGI (T-47D breast) was > 100 µM, the GI50 (TK-10 renal) was 3.26 µM and the TGI (TK-10 renal) was 14.3 µM.
With `Cc1cc(C)c(/C=C2\C(=O)Nc3ccc(NC(=O)CCCCCCC(=O)NO)cc32)[nH]1` the GI50 (BT-549 breast) was 4.43 µM, the TGI (BT-549 breast) was > 100 µM and the GI50 (MCF7 breast) was 0.529 µM. For the same compound, the TGI (MCF7 breast) was > 100 µM, the GI50 (NCI/ADR-RES ovarian) was > 100 µM and the TGI (NCI/ADR-RES ovarian) was > 100 µM. The GI50 (PC-3 prostate) was 0.684 µM, the TGI (PC-3 prostate) was > 100 µM and the GI50 (TK-10 renal) was 3.1 µM. The TGI (TK-10 renal) was > 100 µM.
In the case of `O=C(c1ccc(/C=C/c2n[nH]c3ccccc23)cc1)N1CCNCC1`, the GI50 (BT-549 breast) is reported as 5.58 µM and 4.14 µM, the TGI (BT-549 breast) is reported as > 10 µM and 13.6 µM and the TGI (MCF7 breast) is reported as 2.46 µM and 15.5 µM. For the same compound, the GI50 (NCI/ADR-RES ovarian) was > 10 µM and 15.8 µM, the TGI (NCI/ADR-RES ovarian) was > 10 µM and 36.7 µM and the GI50 (PC-3 prostate) was 5.02 µM and 3.12 µM. The TGI (PC-3 prostate) was > 10 µM and 35.8 µM, the GI50 (T-47D breast) was 19.5 µM and the TGI (T-47D breast) was 47.1 µM. The GI50 (TK-10 renal) was > 10 µM and 5.29 µM and the TGI (TK-10 renal) was > 10 µM and 20.2 µM.
For `NCCSc1nc(-c2ccccc2)c(-c2ccccc2)o1`, the TGI (BT-549 breast) was > 100 µM, the TGI (MCF7 breast) was > 100 µM and the TGI (NCI/ADR-RES ovarian) was > 100 µM. For the same compound, the TGI (PC-3 prostate) was > 100 µM, the TGI (T-47D breast) was > 100 µM and the TGI (TK-10 renal) was > 100 µM.
`Cc1cc(C)c(NC(=O)c2sc3nc4c(cc3c2N)CN(Cc2ccccc2)CC4)c(C)c1` gave a GI50 (BT-549 breast) of 4.05 µM, a TGI (BT-549 breast) of 57.6 µM and a GI50 (MCF7 breast) of 1.61 µM. For the same compound, the TGI (MCF7 breast) was 32.2 µM, the GI50 (NCI/ADR-RES ovarian) was 1.64 µM and the TGI (NCI/ADR-RES ovarian) was 6.24 µM. The GI50 (PC-3 prostate) was 3.13 µM, the TGI (PC-3 prostate) was > 100 µM and the GI50 (T-47D breast) was 2.62 µM. The TGI (T-47D breast) was > 100 µM, the GI50 (TK-10 renal) was 5.06 µM and the TGI (TK-10 renal) was > 100 µM.
`O=C1NC(=NCCc2cccc(Cl)c2)S/C1=C\c1ccc2ncccc2c1` was tested, and the GI50 (BT-549 breast) was > 25 µM, the TGI (BT-549 breast) was > 25 µM and the GI50 (NCI/ADR-RES ovarian) was > 25 µM. For the same compound, the TGI (NCI/ADR-RES ovarian) was > 25 µM, the GI50 (PC-3 prostate) was > 25 µM and the TGI (PC-3 prostate) was > 25 µM. The GI50 (T-47D breast) was > 25 µM, the TGI (T-47D breast) was > 25 µM and the GI50 (TK-10 renal) was > 25 µM. For the same compound, the TGI (TK-10 renal) was > 25 µM.
Work on `O[C@H](c1cc(C(F)(F)F)nc2c(C(F)(F)F)cccc12)[C@@H]1CCCCN1` yielded a GI50 (BT-549 breast) of 12.1 µM, a TGI (BT-549 breast) of 25.5 µM and a GI50 (MCF7 breast) of 2.46 µM. It also gave a TGI (MCF7 breast) of 6.8 µM, a GI50 (NCI/ADR-RES ovarian) of 3.09 µM and a TGI (NCI/ADR-RES ovarian) of 9.49 µM. It also gave a GI50 (PC-3 prostate) of 2.08 µM, a TGI (PC-3 prostate) of 5.79 µM and a GI50 (T-47D breast) of 3.82 µM. For the same compound, the TGI (T-47D breast) was 16 µM, the GI50 (TK-10 renal) was 2.85 µM and the TGI (TK-10 renal) was 10.4 µM.
`N=C(N)c1ccc2nc(-c3cc(CC(=O)N[C@@H](CC(=O)O)C(=O)O)cc(-c4cc(S(N)(=O)=O)ccc4O)c3O)[nH]c2c1` was tested, and the GI50 (BT-549 breast) was > 100 µM, the TGI (BT-549 breast) was > 100 µM and the GI50 (MCF7 breast) was > 100 µM. For the same compound, the TGI (MCF7 breast) was > 100 µM, the GI50 (NCI/ADR-RES ovarian) was > 100 µM and the TGI (NCI/ADR-RES ovarian) was > 100 µM. The GI50 (PC-3 prostate) was > 100 µM, the TGI (PC-3 prostate) was > 100 µM and the GI50 (T-47D breast) was > 100 µM. For the same compound, the TGI (T-47D breast) was > 100 µM, the GI50 (TK-10 renal) was > 100 µM and the TGI (TK-10 renal) was > 100 µM.
For `Cn1cc(C2=C(c3cccc(Br)c3)C(=O)NC2=O)c2ccccc21`, the GI50 (BT-549 breast) was 15.1 µM, the TGI (BT-549 breast) was > 25 µM and the GI50 (MCF7 breast) was 6.08 µM. The TGI (MCF7 breast) was > 25 µM, the GI50 (NCI/ADR-RES ovarian) was 8.85 µM and the TGI (NCI/ADR-RES ovarian) was > 25 µM. For the same compound, the GI50 (PC-3 prostate) was 8.53 µM, the TGI (PC-3 prostate) was > 25 µM and the GI50 (T-47D breast) was 8.11 µM. The TGI (T-47D breast) was > 25 µM, the GI50 (TK-10 renal) was > 18.6 µM and the TGI (TK-10 renal) was > 25 µM.
In the case of `CC(C)(S)C(N)C(=O)O` (stereo unspecified), the GI50 (BT-549 breast) is reported as 1570 µM, the TGI (BT-549 breast) is reported as 4110 µM and > 100 µM and the GI50 (MCF7 breast) is reported as 994 µM. For the same compound, the TGI (MCF7 breast) was 2200 µM and > 100 µM, the GI50 (NCI/ADR-RES ovarian) was 3650 µM and the TGI (NCI/ADR-RES ovarian) was > 5000 µM. The GI50 (PC-3 prostate) was 1320 µM, the TGI (PC-3 prostate) was > 5000 µM and the GI50 (T-47D breast) was 1170 µM. For the same compound, the TGI (T-47D breast) was 2680 µM and > 100 µM, the GI50 (TK-10 renal) was 2610 µM and the TGI (TK-10 renal) was > 5000 µM.
